Results reported in patent US20240352066A1, “ANTIMICROBIAL COMPOUNDS AND THE METHOD OF USE” (priority 2021, published 2024).
Converted amounts (≈) assume the structure as drawn. Where a SMILES comes first, the peptide text is derived from it. [ ]: non-standard residue; d: D form. N(tridecyl)Gly = CCCCCCCCCCCCCNCC(=O)O; N(4-F-Bzl)Gly = O=C(O)CNCc1ccc(F)cc1; Gly(N-2-aminoethyl) = NCCNCC(=O)O; Nspe = C[C@H](NCC(=O)O)c1ccccc1; Nlys = NCCCCNCC(=O)O

Key:
[1] = Mammalian cytotoxicity, MTT, HepG2; assay type: cell-based, human; conditions: human, HepG2 hepatocellular carcinoma cells
Protocol: Hepatocellular carcinoma (HepG2), mouse fibroblast (3T3), human lung (HPL1A), and human keratinocyte (HaCat) cells were cultured in Dulbecco modified eagle media (DMEM) containing 10% fetal bovine serum (FBS) and 1% penicillin, streptomycin, and glutamine (PSG) at 37° C. and 5% CO2. Cells were collected and adjusted to […] to 4×10^5 cells/mL in phenol-red free DMEM and plated (100 μL) 96 well plates. 2-fold serial dilutions of 10× peptoid (11.1 μL) were added to each well in triplicate. Water (vehicle) was used as a negative control. Plates were incubated at 37° C. in 5% CO2 for 72 hours. Thiazolyl blue tetrazolium bromide (MTT) was added to each well (5 mg/mL; 20 μL) and incubated for 3 hours. Media was removed, DMSO (100 μL) was added, and plates were incubated at 37° C. for 10 minutes. Plates were read on a SpectraMax M5 plate reader (Abs. 570 nm). The concentration of compound resulting in a 50% reduction in growth compared to control (toxicity dose 50%; TD50) was determined using GraFit. This procedure was repeated three times on separate days.
Cytotoxicity against HepG2 hepatocellular carcinoma cells was done as previously described (Green et al. ACS infectious diseases, (2022); Corson et al. ACS medicinal chemistry letters 7 12, 1139-1144 (2016)). HepG2 cells were maintained in culture in T-75 flasks using Dulbecco's Modified Eagle's Media (DMEM) with phenol red pH indicator and supplemented with 10% fetal bovine serum (FBS) and 1% penicillin, streptomycin, and glutamine (PSG). The cells were incubated at 37° C. and 5% CO2 in a humidified incubator until desired confluency was achieved. The media was removed from the flask, and the cells were washed 1× with 10 mL of phosphate-buffered saline (PBS; 11.8 mM phosphate, 140.4 mM NaCl; pH 7.4) which was then discarded. To remove the adhered cells from the flask, 2 mL of trypsin was added, and the cells were incubated for 10 minutes. To quench the trypsin, 8 mL of phenol red-free DMEM with 10% FBS and 1% PGS was added, and the cell solution was transferred to a 15 mL conical tube. After the cells were pelleted by centrifugation at 1000 rpm for 5 minutes, the supernatant was poured off and cells resuspended in the volume of phenol red-free media needed for the assay. Cell concentration was determined by counting with a hemocytometer, and the solution was diluted with media until a concentration of 1×10^5 cells/mL was achieved. A 100 μL aliquot of cell solution was added to each well of a 96-well plate, apart from the 3 wells used for a media control. Cells were incubated for 2-3 hours at 37° C. and 5% CO2 until cells were adherent.
Compound stocks of 20 mg/mL were used to prepare 2-fold serial dilutions of each compound in sterile water, giving final concentrations of 200, 100, 50, 25, 12.5, 6.25, 3.13 and 1.56 μg/mL. 11.1 μL of prepared compound solutions was added to the appropriate wells in triplicate. A negative vehicle control of sterile water, as well as the aforementioned media control, were used. The plates were incubated for 72 hours at 37° C. and 5% CO2. After incubation, 20 μL of 5 mg/mL 3-(4,5-dimethylthiazol-2-yl)-2,5-diphenyltetrazolium bromide (MTT) in water was added to each well. The plate was incubated for 3 hours at 37° C. and 5% CO2. Media was removed from each well using a sterile glass Pasteur pipette. 100 μL of DMSO was added to each well and incubated for 15 minutes at 37° C. Absorbance was read at 570 nm using a SpectraMax M5 Plate Reader. This MTT assay was performed in biological duplicate unless discrepant results were observed. If this was the case, the assay was performed in biological triplicate for further verification. The reported value is the average of biological replicates with standard deviation.

[2] = system: human red blood cells (hRBC); test: Hemolytic activity against human red blood cells; assay type: cell-based; conditions: Example 2; same donor sample of hRBCs
Protocol: Hemolytic activity was determined using single donor human red blood cells (hRBC). hRBCs were washed with PBS and centrifuged (1000 RPM; 10 minutes) three times, resuspended in PBS and aliquoted (100 μL) in 96 well plates. 2-fold serial dilutions of 10× peptoid final concentrations in PBS were prepared and added to wells in triplicate. PBS was used as a vehicle control and 1% Triton X-100 as a positive control. Plates were incubated for 1 hour (37° C.; 5% CO2) then centrifuged (1000 RPM; 10 minutes) and supernatant was diluted 1:20 into PBS in a new 96-well plate. Plates were read on a SpectraMax M5 plate reader (Abs. 405 nm). Percent hemolysis was determined by the following equation: […]
GraFit was used to determine concentrations at 50% hemolytic activity (HC50) and the Hill coefficient (H). Hemolytic activity at 10% (HC10) was then determined by the following equation: […]
The hemolytic activity of select peptoids was determined as done previously (Green et al. ACS medicinal chemistry letters 12 9, 1470-1477 (2021); Middleton et al. Bioorganic & medicinal chemistry letters 28 22, 3514-3519 (2018)). Selected peptoids were prepared in 2-fold serial dilutions in PBS at the desired concentrations. Human red blood cells (hRBCs, 9 mL) were centrifuged at 1000 rpm for 10 minutes, and the supernatant was removed and discarded. A 10 mL aliquot of PBS was used to resuspend the hRBCs which were centrifuged again at 1000 rpm for 10 minutes. This PBS wash was completed two more times for a total of three washes. A 9 mL aliquot of PBS was added to the hRBCs, and 100 μL of cell solution was added to individual wells of a 96-well plate. Peptoid solutions (11.1 μL) were added to the appropriate wells in triplicate. A vehicle control of PBS and positive control of 1% Triton X-100 were added to wells in triplicate.
The plate was incubated at 37° C. for 1 hour and centrifuged at 1000 rpm for 10 minutes. For each well, 5 μL of supernatant was transferred to 95 μL of PBS in a new 96-well plate. The absorbance at 405 nm was measured using a SpectraMax M5 Plate Reader, and the percent hemolysis was calculated as follows: […]

[3] = system: C. neoformans; assay type: cell-based, Cryptococcus neoformans; conditions: 72 h
Protocol: The minimum inhibitory concentration (MIC) of peptoids against fungal pathogens C. albicans and C. neoformans was determined following CLSI guidelines (CLSI. Reference method for broth dilution antifungal susceptibility testing of yeasts; approved standard-third edition; CLSI document M27-A3. (Clinical and Laboratory Standards Institute, 2008). […] This inoculant was diluted 1:100 into RPMI-MOPS and then further diluted 1:20 into RPMI-MOPS. 198 μL of inoculant was seeded into each well of a 96 well black-walled plate. 2-fold serial dilutions of 100× peptoid solutions were prepared in water and 2 μL of peptoid were added to each well in triplicate. […] MIC was defined as the lowest concentration of compound preventing fungal growth. This assay was repeated 3 times on separate days with each compound. […] The addition of 0.1 mL cell solution to 9.9 mL of RPMI-MOPS produced a 1:100 cell solution. After vortexing, 0.5 mL of the […] was added to 9.5 mL RPMI-MOPS to produce a 1:20 cell solution. 198 μL of the 1:20 solution was added to the wells of an opaque 96-well plate, apart from the wells designated for the medial control. […] Amphotericin B was used as a positive control, and sterile water was used for the vehicle control. The plates were incubated for 72 hours at 35° C. After incubation, the concentration of compound resulting in no visual growth was recorded as the MIC. All assays performed in biological triplicate on different days.

[4] = system: C. albicans; test: Peptoid library agar diffusion (PLAD) screening of library RGL8; assay type: cell-based, Candida albicans; conditions: RPMI-MOPS media
Text: Antimicrobial peptoids of the present disclosure may have biological activity. Biological activity can be antimicrobial activity against a microbe, e.g., a fungal pathogen, a bacterial pathogen, or a combination thereof. A peptoid library agar diffusion (PLAD) assay may be used to identify peptoids that have antimicrobial activity (Fischer et al., ACS Comb. Sci. 18, 287-291 (2016); Corson et al., ACS Med. Chem. Lett. 7, 1139-1144 (2016); Turkett et al., ACS Comb. Sci. 18, 287-291 (2016)). The PLAD assay uses a PLAD chemical linker. […] Beads containing the PLAD linked peptoids are embedded in an agar medium where the agar medium is inoculated with the microbe of interest. The β-strand peptoid is released by a reducing reagent. The reducing agent cleaves a disulfide within the PLAD linker, allowing the β-strand peptoid to interact with microbes around the bead. If the released peptoid has antimicrobial activity, a zone of inhibited growth will be present. The α-strand peptoid remains attached to the bead during the screening process. […] The chemical cleavage of the α-strand peptoid is be accomplished at a C-terminal methionine of the PLAD linker using cyanogen bromide. […] The PLAD assay may be adapted to screen a peptoid of interest against different types of microbes of interest through slight modifications of the assay parameters. […]

| Molecule | CC50 at 72 h [1] | hRBC HC10 [2] | C. neoformans MIC [3] | PLAD screening result (zone of inhibited fungal growth) [4] |
| --- | --- | --- | --- | --- |
| CCCCCCCCCCCCCNCC(=O)N(CC(=O)N(CCCCN)CC(=O)N(CCN)CC(=O)N(CC(N)=O)[C@@H](C)c1ccccc1)[C@@H](C)c1ccccc1 [Compound 16] (H-[N(tridecyl)Gly][Nspe][Nlys][Gly(N-2-aminoethyl)][Nspe]-NH2) | 167 ± 104 µg/mL (≈ 207 µM) | 38 ± 11 µg/mL | 1.56 to 3.13 µg/mL | – |
| CCCCCCCCCCCCCNCC(=O)N(CC(=O)N(CCCCN)CC(=O)N(CCN)CC(=O)N(CC(N)=O)Cc1ccc(F)cc1)Cc1ccc(F)cc1 [Compound 17] (H-[N(tridecyl)Gly][N(4-F-Bzl)Gly][Nlys][Gly(N-2-aminoethyl)][N(4-F-Bzl)Gly]-NH2) | 150 ± 7 µg/mL (≈ 184 µM) | 59 ± 22 µg/mL | 1.56 to 3.13 µg/mL | – |
| Ntri-Ncha-Ncha-Ncha-Ncha | – | – | – | hit |
